This note sets out measurements from ChEMBL document CHEMBL3616403, “Probing a 3,4'-bis-guanidinium diaryl derivative as an allosteric inhibitor of the Ras pathway” (Bioorg Med Chem Lett, 2015).

Assay [1] can be described thus: Cytotoxicity against human F-6-8 cells expressing B-Raf V600E mutant assessed as cell viability after 72 hrs by MTT assay. The assay is classed as functional, cell-based.
Assay [2] can be described thus: Cytotoxicity against human T29 cells expressing wild type B-Raf assessed as cell viability after 72 hrs by MTT assay. The class given is functional, cell-based. To be noted: T29, 72 h. On the technique in general: Formazan colour is commonly taken as a measure of viable cells.
The nature of assay [3]: Selectivity ratio of IC50 for human F-6-8 cells expressing B-Raf V600E mutant to IC50 for human T29 cells expressing wild type B-Raf. The assay is classed as functional.
Assay [4] can be described thus: Cell cycle arrest in human T29 cells assessed as decrease in cell level at S phase at 5 to 10 uM after 48 to 72 hrs by propidium iodide staining-based flow cytometric analysis. The class given is functional. (A flow cytometer gives signals particle by particle.)
Assay [5] is described as follows: Cell cycle arrest in human T29 cells assessed as decrease in cell level at G2/M phase at 5 to 10 uM after 48 to 72 hrs by propidium iodide staining-based flow cytometric analysis. The class given is functional.
Assay [6] deals with Epidermal growth factor receptor (Homo sapiens) (UniProt P00533). Description: Inhibition of EGFR in human T29 cells assessed as suppression of MEK phosphorylation at Ser217/Ser221 after 24 hrs by Western blot analysis. The assay is classed as cell-based.
Epidermal growth factor receptor (Homo sapiens), sequence (P00533 whole entry): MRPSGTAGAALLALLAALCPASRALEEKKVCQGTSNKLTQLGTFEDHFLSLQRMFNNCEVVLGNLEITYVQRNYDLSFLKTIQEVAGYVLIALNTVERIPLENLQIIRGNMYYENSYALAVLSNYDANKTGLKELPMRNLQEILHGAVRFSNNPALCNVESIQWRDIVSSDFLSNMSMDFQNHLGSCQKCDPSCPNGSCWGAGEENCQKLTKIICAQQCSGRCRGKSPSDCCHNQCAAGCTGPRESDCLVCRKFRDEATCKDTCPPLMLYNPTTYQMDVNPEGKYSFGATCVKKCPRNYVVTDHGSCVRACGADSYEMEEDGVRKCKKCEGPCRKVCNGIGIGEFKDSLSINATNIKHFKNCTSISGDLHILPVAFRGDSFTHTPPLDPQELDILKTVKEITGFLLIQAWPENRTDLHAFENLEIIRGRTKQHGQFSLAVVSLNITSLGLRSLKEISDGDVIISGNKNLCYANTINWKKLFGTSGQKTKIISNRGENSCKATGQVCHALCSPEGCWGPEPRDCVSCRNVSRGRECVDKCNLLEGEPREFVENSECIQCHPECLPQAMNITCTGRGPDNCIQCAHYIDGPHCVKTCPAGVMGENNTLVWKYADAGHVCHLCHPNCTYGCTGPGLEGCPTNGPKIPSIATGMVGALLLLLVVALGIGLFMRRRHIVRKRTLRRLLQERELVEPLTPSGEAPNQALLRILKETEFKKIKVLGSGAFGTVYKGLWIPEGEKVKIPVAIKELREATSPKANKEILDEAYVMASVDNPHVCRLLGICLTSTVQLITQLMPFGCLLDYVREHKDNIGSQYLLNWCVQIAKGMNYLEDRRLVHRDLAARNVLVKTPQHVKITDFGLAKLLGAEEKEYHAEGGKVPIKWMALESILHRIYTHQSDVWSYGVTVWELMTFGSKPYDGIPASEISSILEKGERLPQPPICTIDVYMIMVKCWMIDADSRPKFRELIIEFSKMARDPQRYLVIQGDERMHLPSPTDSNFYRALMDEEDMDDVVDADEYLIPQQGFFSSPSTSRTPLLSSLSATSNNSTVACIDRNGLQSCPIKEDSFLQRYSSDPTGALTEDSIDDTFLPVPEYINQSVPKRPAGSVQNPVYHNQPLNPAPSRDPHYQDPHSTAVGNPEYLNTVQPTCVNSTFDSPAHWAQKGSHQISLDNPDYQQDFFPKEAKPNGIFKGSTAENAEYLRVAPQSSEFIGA
Assay [7] relates to T29. Put plainly: Cytotoxicity against human T29 cells assessed as cell detachment from culture dish at 10 uM after 24 hrs by inverted microscopic analysis. The class given is functional, cell-based.
Assay [8] deals with Serine/threonine-protein kinase B-raf (Homo sapiens) (UniProt P15056). Description: Competitive inhibition of recombinant B-Raf (unknown origin) expressed in HEK293 cells up to 100 uM after 60 to 120 mins by FRET analysis in presence of ATP. The class given is cell-based.
Serine/threonine-protein kinase B-raf (Homo sapiens), sequence (P15056 whole entry): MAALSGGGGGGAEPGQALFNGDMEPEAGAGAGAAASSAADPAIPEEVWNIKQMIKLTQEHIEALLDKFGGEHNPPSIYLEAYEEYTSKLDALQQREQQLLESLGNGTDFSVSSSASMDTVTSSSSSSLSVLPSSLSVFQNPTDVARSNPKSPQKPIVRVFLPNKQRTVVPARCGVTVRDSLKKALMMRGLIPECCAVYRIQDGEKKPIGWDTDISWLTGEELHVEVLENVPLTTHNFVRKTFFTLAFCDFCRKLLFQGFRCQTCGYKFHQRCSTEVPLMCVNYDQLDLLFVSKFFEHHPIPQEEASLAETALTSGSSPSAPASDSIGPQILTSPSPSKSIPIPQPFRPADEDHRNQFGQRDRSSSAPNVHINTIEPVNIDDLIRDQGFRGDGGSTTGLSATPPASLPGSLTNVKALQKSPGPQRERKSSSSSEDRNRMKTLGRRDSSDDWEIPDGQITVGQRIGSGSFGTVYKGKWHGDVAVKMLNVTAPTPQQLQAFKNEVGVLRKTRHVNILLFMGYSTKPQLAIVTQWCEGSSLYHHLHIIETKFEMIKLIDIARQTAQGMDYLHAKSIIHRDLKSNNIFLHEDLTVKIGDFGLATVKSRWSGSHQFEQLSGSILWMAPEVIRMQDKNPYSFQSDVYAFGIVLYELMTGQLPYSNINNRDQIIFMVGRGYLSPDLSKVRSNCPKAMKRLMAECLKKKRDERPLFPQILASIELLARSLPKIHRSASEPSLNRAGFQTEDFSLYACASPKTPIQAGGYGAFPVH
A short description of assay [9]: Cell cycle arrest in human T29 cells assessed as increase in cell level at pre-G1 phase at 5 uM after 48 hrs by propidium iodide staining-based flow cytometric analysis. The assay is classed as functional.
Assay [10] in a line: Cell cycle arrest in human T29 cells assessed as increase in cell level at pre-G1 phase at 10 uM after 48 hrs by propidium iodide staining-based flow cytometric analysis. The assay is classed as functional.
Assay [11] addresses Epidermal growth factor receptor (Homo sapiens) (UniProt P00533). Put plainly: Inhibition of EGFR autophosphorylation at Tyr1068 in human T29 cells after 24 hrs by Western blot analysis. The assay is classed as cell-based. A general note: Immunoblotting shows a protein as a band on a membrane.
Assay [12] can be described thus: Cell cycle arrest in human T29 cells assessed as decrease in cell level at G0/G1 phase at 5 to 10 uM after 48 to 72 hrs by propidium iodide staining-based flow cytometric analysis. The assay is classed as functional.
The target in assay [13] is Epidermal growth factor receptor (Homo sapiens) (UniProt P00533). Description: Inhibition of EGFR in human T29 cells assessed as suppression of AKT phosphorylation at mTORC2 site, Ser473 after 24 hrs by Western blot analysis. The assay is classed as cell-based.
Assay [14] addresses Serine/threonine-protein kinase B-raf (Homo sapiens) (UniProt P15056). Description: Inhibition of recombinant B-Raf (unknown origin) expressed in HEK293 cells using MEK1 peptide as substrate at 20 uM after 15 mins by radiometric assay in presence of [gamma-32P]ATP.
For assay [15], the system named is T29. Put plainly: Cytotoxicity against human T29 cells assessed as increase in cell shrinkage at 10 uM after 24 hrs by inverted microscopic analysis. The class given is functional, cell-based.
Assay [16] concerns the target Epidermal growth factor receptor (Homo sapiens) (UniProt P00533). Description: Inhibition of EGFR in human T29 cells assessed as suppression of Src phosphorylation at Tyr416 after 24 hrs by Western blot analysis. The assay is classed as cell-based.
A short description of assay [17]: Cell cycle arrest in human T29 cells assessed as increase in cell level at pre-G1 phase at 10 uM after 72 hrs by propidium iodide staining-based flow cytometric analysis. The class given is functional.
For assay [18], the system named is T29. Description: Cytotoxicity against human T29 cells assessed as increase in nuclear fragmentation at 10 uM after 24 hrs by inverted microscopic analysis. The assay is classed as functional, cell-based.
Assay [19] has as its system T29. Put plainly: Induction of apoptosis in human T29 cells assessed as PARP cleavage at 10 uM after 24 hrs by Western blot analysis. The class given is functional, cell-based.
The subject of assay [20] is T29. Description: Cytotoxicity against human T29 cells assessed as increase in membrane blebbing at 10 uM after 24 hrs by inverted microscopic analysis. The class given is functional, cell-based.
The target in assay [21] is Epidermal growth factor receptor (Homo sapiens) (UniProt P00533). Put plainly: Inhibition of EGFR in human T29 cells assessed as suppression of C-Raf phosphorylation at p-21-activated protein kinase site, Ser338 after 24 hrs by Western blot analysis. The class given is cell-based.
Assay [22] in a line: Cell cycle arrest in human T29 cells assessed as increase in cell level at pre-G1 phase at 5 uM after 72 hrs by propidium iodide staining-based flow cytometric analysis. The assay is classed as functional.
Assay [23] deals with Epidermal growth factor receptor (Homo sapiens) (UniProt P00533). Put plainly: Inhibition EGFR in human T29 cells assessed as suppression of STAT3 phosphorylation at Tyr705 after 24 hrs by Western blot analysis. The class given is cell-based.
The target is the same in assay [24]. Description: Inhibition of EGFR in human T29 cells assessed as suppression of ERK phosphorylation at Tyr204 after 24 hrs by Western blot analysis. The class given is cell-based.

Each structure is given as a SMILES string. Activity calls are given as the source filed them. No cut-off for these calls is given here.

As for `CNC(=O)c1cc(Oc2ccc(NC(=O)Nc3ccc(Cl)c(C(F)(F)F)c3)cc2)ccn1` [SORAFENIB], the figures for the IC50 in assay [1] and in assay [2] were 1.3 µM and 0.9 µM, respectively.

As to `N=C(N)Nc1ccc(Oc2cccc(NC(=N)N)c2)cc1`, the figures for the IC50 in assay [1] and in assay [2] were 9.8 µM and 6.5 µM, respectively.

Consider `N=C(N)Nc1cccc(Cc2ccc(NC(=N)Nc3ccc(Cl)c(C(F)(F)F)c3)cc2)c1`, for which the IC50 (commonly the concentration needed to halve the response being measured) is 7.6 µM in assay [1] and 4.5 µM in assay [2].

Consider `CC(=O)Nc1cccc(Nc2ccc(NC(=N)Nc3ccc(Cl)c(C(F)(F)F)c3)cc2)c1`, for which the IC50 was found to be 6.6 µM in assay [1] and 4.1 µM in [2].

For `N=C(N)Nc1ccc(Oc2cccc(NC(=N)Nc3ccc(Cl)c(C(F)(F)F)c3)c2)cc1`, the “Ratio IC50” value in [3] turned out to be 2. Further, the result in assay [4], in assay [5], in assay [7], in assay [12], in [15] and in [18] was Active. Also, the outcome in [19] and in assay [20] was Active. For the same compound, the IC50 amounted to 2.6 µM in assay [1] and 0.9 µM in assay [2]. The inhibition entry in assay [6], in assay [11], in assay [13], in assay [16], in assay [21] and in [23] was “Dose-dependent effect” throughout. In addition, the inhibition entry in [24] was “Dose-dependent effect”. The inhibition result in assay [8] is “inactive”. Also, the Activity in assay [9] was found to be 8.5%; in assay [10], 20.7%; in assay [17], 38.7%; in assay [22], 22.5%. The inhibition result in [14] is “Active”.
